From ChEMBL document CHEMBL1201862, “PubChem BioAssay data set” (2004)
Calls of active or inactive are those of the source.

Tests used:
[1] = DRD fibroblast viability loss – cell-based, non-viral oncogenic, luminescence, dose response (AID 1934); type: functional; settings: Homo sapiens
BJ [2] = test: BJ-TERT-LT-ST fibroblast viability loss – cell-based, RAS-independent, luminescence, dose response (AID 1935); type: functional; settings: Homo sapiens;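 note: BJ fibroblasts immortalized with TERT plus LT and ST oncogenes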
BJ [3] = test: BJ-TERT fibroblast viability loss – cell-based, RAS-independent, luminescence, dose response (AID 1933); type: functional; settings: Homo sapiens
BJ [4] = test: cells; type: functional, cell-based; settings: Homo sapiens
[5] = target: Voltage-dependent T-type calcium channel subunit alpha-1H (Homo sapiens, UniProt O95180); type: functional;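 note: channel activity triggered by adding a high calcium stimulation buffer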
Chain of Voltage-dependent T-type calcium channel subunit alpha-1H (O95180 whole entry): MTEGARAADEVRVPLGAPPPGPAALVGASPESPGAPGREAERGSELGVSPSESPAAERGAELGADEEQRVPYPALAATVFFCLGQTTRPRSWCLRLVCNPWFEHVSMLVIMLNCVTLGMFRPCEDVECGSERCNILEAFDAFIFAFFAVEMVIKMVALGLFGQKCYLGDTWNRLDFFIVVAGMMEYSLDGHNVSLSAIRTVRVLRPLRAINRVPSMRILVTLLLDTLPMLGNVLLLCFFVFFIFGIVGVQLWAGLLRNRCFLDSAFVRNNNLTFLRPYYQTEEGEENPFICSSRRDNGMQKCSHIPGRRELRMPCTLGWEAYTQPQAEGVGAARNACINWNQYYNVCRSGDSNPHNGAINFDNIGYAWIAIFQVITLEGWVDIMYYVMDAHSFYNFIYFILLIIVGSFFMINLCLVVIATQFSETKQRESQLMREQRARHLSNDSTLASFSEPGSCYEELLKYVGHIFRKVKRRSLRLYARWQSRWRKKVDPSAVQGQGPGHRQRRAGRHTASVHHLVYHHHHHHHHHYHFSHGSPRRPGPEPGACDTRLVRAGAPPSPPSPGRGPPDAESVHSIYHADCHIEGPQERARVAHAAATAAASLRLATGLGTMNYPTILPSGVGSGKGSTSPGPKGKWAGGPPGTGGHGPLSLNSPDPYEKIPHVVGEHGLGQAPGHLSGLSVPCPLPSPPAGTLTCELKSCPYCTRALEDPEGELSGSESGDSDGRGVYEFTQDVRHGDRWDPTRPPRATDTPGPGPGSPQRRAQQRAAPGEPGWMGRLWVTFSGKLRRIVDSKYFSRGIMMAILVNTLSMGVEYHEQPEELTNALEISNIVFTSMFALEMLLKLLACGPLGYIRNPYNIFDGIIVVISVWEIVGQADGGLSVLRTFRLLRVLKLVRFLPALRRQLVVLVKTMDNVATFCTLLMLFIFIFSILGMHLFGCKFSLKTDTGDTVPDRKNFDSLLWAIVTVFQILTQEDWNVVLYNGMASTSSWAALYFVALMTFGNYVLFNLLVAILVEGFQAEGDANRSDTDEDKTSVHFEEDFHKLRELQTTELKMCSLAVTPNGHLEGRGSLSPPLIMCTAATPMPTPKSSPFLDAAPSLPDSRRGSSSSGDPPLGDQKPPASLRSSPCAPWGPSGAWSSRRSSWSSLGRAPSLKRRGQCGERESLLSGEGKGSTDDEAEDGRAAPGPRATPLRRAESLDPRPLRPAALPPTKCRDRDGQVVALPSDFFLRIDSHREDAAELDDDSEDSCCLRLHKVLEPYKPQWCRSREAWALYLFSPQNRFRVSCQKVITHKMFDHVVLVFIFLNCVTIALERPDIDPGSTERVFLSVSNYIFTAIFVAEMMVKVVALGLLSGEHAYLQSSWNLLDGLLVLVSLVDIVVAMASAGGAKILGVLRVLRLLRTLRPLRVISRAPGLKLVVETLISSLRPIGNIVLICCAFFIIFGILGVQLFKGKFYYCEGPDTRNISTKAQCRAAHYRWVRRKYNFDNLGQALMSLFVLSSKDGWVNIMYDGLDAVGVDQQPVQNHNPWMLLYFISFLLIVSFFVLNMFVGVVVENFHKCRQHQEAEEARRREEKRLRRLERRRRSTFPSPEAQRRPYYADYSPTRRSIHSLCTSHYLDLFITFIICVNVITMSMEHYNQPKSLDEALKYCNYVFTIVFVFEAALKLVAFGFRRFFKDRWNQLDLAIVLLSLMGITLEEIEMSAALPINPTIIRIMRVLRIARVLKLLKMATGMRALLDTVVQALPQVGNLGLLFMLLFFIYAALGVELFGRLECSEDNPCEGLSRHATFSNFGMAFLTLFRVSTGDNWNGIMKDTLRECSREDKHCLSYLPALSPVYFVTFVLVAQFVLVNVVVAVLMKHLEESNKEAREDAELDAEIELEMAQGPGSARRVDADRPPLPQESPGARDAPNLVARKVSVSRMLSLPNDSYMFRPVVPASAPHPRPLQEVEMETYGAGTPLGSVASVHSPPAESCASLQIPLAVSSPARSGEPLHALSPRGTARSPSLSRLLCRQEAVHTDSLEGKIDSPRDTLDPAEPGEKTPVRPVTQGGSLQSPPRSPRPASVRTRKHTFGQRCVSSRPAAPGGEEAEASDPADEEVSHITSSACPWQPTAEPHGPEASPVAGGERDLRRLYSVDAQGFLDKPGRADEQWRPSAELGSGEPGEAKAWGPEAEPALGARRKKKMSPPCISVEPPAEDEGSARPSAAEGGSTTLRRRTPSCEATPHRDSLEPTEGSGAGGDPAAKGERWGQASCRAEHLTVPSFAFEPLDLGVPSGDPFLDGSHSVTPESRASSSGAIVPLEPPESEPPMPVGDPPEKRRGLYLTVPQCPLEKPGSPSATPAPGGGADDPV

[6] = target: T1, Microphthalmia-associated transcription factor (Homo sapiens, UniProt O75030); test: reducers of TRPM1 reporter luminescence, concentration series – cell-based, SK-MEL-5, cherry-picked, set 3, MITF inhibitor project, dose response (AID 493073); type: functional;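 note: SK-MEL-5 melanoma cells with luciferase driven by the MITF target TRPM1 promoter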
T1 sequence (O75030 whole entry): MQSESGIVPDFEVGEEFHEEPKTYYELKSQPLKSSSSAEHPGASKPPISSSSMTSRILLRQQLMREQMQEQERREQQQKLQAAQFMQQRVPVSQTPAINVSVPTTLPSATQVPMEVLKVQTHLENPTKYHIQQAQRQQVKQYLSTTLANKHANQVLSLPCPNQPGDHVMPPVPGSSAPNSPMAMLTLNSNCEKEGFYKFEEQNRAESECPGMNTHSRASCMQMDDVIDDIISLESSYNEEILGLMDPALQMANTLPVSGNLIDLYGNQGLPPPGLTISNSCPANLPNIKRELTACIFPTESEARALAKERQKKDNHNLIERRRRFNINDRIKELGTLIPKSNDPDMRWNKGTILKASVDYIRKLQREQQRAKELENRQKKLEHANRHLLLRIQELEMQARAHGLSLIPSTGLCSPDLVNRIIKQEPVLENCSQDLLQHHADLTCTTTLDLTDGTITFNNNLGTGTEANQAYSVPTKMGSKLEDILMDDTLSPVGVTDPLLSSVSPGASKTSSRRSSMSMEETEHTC

Aminopeptidase N = target: T2, Aminopeptidase N (Plasmodium falciparum FcB1/Columbia, UniProt O96935); test: malaria alanyl aminopeptidase activity blockers – biochemical, fluorogenic H-Leu-NHMec substrate, 1536-well (AID 1445); design: species or system Plasmodium falciparum 3D7, 3D7
T2 sequence (O96935 whole entry): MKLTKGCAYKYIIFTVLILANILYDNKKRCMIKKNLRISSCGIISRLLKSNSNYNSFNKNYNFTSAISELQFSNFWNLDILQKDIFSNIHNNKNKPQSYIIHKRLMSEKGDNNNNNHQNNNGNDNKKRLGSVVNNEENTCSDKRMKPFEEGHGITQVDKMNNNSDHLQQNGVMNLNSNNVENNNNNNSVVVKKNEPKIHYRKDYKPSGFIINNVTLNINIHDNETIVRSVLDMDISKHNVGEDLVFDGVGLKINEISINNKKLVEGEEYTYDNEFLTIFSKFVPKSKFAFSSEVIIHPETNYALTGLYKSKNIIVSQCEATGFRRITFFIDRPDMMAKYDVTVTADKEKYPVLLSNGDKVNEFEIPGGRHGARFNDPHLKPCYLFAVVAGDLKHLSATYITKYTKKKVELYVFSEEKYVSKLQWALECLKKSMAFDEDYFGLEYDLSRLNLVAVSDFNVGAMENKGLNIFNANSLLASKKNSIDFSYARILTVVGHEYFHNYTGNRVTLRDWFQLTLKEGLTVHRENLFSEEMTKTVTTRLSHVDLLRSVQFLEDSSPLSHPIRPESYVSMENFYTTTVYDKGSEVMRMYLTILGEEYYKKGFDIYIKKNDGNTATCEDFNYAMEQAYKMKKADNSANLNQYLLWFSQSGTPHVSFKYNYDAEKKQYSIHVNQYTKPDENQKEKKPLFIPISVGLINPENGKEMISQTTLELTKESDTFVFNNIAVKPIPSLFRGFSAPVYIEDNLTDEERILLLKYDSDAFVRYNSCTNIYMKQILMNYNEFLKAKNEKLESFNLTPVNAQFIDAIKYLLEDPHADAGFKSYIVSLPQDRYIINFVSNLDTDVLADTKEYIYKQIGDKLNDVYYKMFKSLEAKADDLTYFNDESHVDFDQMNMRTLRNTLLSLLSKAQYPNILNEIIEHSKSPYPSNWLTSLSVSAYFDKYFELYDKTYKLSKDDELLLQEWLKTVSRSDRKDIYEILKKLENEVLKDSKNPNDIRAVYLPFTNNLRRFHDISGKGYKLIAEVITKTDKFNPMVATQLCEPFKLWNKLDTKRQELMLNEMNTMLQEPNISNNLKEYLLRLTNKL

[7] = target: DNA dC->dU-editing enzyme APOBEC-3G (Homo sapiens, UniProt Q9HC16); type: functional;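 note: Dose-response counterscreen measuring inhibition of APOBEC3G DNA deaminase activity, run while confirming APOBEC3A inhibitors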
Chain of DNA dC->dU-editing enzyme APOBEC-3G (Q9HC16 whole entry): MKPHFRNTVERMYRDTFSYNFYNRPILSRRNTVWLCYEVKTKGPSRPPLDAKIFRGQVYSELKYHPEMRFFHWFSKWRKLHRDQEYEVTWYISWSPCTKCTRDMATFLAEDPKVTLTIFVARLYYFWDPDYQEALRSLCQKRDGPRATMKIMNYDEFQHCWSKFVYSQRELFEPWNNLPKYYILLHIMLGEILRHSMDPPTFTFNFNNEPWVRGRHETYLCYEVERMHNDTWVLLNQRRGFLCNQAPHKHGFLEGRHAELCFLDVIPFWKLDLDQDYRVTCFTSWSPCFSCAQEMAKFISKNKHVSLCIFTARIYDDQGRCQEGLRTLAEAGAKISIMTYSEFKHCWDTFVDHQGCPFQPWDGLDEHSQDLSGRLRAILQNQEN

[8] = target: Luciferin 4-monooxygenase (Photinus pyralis, UniProt P08659); test: inhibition of purified Photinus pyralis luciferase – biochemical, luminescence, dose response (AID 1891)
Chain of Luciferin 4-monooxygenase (P08659 whole entry): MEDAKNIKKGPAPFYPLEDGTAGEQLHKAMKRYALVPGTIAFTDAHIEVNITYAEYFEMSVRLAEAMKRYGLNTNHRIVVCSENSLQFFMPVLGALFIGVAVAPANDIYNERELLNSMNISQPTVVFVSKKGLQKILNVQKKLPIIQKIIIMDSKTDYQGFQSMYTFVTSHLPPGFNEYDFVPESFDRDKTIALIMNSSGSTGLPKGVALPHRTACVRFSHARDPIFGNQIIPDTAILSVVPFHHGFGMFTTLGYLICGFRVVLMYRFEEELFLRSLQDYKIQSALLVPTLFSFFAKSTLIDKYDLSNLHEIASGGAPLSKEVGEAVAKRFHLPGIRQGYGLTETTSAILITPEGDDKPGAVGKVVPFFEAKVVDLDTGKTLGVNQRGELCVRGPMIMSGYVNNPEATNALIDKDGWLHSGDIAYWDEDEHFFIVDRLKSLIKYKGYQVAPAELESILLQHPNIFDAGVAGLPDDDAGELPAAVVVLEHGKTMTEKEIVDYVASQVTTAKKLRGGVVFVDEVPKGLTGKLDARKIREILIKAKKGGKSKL

[9] = target: DNA dC->dU-editing enzyme APOBEC-3A (Homo sapiens, UniProt P31941); test: Dose Response confirmation of small molecule APOBEC3A DNA Deaminase Inhibitors via a fluorescence-based single-stranded DNA deaminase assay. [Related pubchem assays (depositor defined):AID493011, AID493024]; type: functional
Chain of DNA dC->dU-editing enzyme APOBEC-3A (P31941 whole entry): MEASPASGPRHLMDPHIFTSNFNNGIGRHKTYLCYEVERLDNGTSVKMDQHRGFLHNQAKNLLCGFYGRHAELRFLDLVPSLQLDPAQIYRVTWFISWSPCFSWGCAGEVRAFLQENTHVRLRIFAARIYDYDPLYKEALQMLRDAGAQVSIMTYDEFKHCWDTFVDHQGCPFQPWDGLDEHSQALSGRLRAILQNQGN

[10] = Luminescence Cell-Based Dose Confirmation HTS to Identify Inhibitors of Platelet Dense Granule Release. [Related pubchem assays: 1663 (Primary HTS), 1678 (Summary of Project)]; type: functional
Leucine aminopeptidase = target: T3, Leucine aminopeptidase (Plasmodium falciparum 3D7, UniProt Q8IL11); test: P. falciparum M17LAP inhibitors, primary screen, biochemical, fluorogenic H-Leu-NHMec substrate, 1536-well (AID 1619); type: functional
T3 sequence (Q8IL11 whole entry): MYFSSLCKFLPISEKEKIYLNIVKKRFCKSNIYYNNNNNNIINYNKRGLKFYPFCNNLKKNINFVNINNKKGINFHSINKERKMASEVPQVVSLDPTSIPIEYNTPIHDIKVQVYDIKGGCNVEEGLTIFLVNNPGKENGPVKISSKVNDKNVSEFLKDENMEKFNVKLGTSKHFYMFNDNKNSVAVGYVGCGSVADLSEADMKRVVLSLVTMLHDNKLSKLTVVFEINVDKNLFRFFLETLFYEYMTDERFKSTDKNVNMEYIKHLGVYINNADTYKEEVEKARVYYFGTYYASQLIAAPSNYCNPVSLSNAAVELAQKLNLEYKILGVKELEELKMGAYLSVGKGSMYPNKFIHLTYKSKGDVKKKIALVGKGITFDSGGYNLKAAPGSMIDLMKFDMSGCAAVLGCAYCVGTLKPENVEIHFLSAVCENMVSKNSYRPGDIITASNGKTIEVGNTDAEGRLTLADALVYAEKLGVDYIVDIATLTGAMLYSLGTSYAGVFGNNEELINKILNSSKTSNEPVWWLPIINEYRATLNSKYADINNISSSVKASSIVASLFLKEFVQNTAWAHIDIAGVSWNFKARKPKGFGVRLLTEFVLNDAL

[11] = luciferase reporter signal suppression in cells – H4 neuroglioma cells, luminescence, dose response (AID 1990); type: functional, cell-based
[12] = alpha-synuclein stem-loop luciferase translation blockers – H4 neuroglioma cells, luminescence, confirmation (AID 1988); type: functional, cell-based
[13] = Luminescence Cell-Based Dose Response HTS to Identify Inhibitors of 5'UTR Stem-Loop Driven Prion Protein mRNA Translation in H4 Neuroglioblastoma Cells. [Related pubchem assays: 1827 (Project Summary), 1813 (Primary HTS)]; type: functional
[14] = HPDE-C7 pancreatic duct cell viability loss – fluorescence, HTS (AID 430); type: functional, cell-based; settings: Homo sapiens
[15] = HEK-293T viability loss after treatment – luminescence, T-cell screen hits, cytotoxicity control for TCR NF-kB inhibitor project, dose response (AID 489026); type: functional, cell-based;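 note: cells exposed to compound about 14 hours before the viability readout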
[16] = viability loss of HPDE-C7K cells – cell-based, fluorescence, HTS, primary screen (AID 431); type: functional; settings: Homo sapiens
[17] = microbe, parasite or virus in culture; type: functional; settings: Mycobacterium tuberculosis
cells = type: functional
[18] = THP-1 cell cytotoxicity, dose response, cytotoxicity control for non-replicating M. tuberculosis project (AID 489025); type: functional
[19] = target: T4, RNA-binding protein pos-1 (Caenorhabditis elegans, UniProt G5EF15); test: disruptors of C. elegans POS-1 RNA interaction – biochemical, fluorescence polarization, dose response (AID 1964);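 note: purified POS-1 fused to maltose binding protein made in E. coli; potency of compounds blocking POS-1 binding to fluorescent RNA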
T4 sequence (G5EF15 whole entry): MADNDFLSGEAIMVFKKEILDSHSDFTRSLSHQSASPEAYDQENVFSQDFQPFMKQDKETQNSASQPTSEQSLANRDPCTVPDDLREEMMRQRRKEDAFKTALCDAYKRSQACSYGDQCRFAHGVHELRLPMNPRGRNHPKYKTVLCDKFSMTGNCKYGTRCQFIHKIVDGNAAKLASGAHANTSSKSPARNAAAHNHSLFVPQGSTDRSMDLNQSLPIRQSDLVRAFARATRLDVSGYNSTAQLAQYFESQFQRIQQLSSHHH

[20] = target: T5, Zinc finger protein mex-5 (Caenorhabditis elegans, UniProt Q9XUB2); test: potency of MEX-5 RNA-binding blockers – biochemical, C. elegans, fluorescence polarization, dose response (AID 1960)
T5 sequence (Q9XUB2 whole entry): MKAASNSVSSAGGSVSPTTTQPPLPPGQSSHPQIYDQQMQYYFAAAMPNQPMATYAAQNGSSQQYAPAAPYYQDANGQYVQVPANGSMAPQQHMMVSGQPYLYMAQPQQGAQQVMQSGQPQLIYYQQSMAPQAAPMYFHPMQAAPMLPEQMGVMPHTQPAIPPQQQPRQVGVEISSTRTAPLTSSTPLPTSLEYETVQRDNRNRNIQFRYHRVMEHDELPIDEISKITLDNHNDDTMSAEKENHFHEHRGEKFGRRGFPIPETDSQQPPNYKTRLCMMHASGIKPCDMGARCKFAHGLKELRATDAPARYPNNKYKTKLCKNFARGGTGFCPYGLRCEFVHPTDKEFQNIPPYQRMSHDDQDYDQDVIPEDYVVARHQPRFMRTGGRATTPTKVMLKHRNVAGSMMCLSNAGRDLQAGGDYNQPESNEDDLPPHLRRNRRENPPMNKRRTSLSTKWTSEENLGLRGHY

INS1 = test: INS-1E survival protection against cytokine death – cell-based, luminescence, retest, dose response (AID 449756); type: functional; settings: Rattus norvegicus;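 note: cell death triggered by IL-1 beta plus TNF-alpha plus IFN-gamma mixture; protective hits raise ATP signal compared with cytokine alone wells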
[21] = target: Induced myeloid leukemia cell differentiation protein Mcl-1 (Homo sapiens, UniProt Q07820); type: functional
Chain of Induced myeloid leukemia cell differentiation protein Mcl-1 (Q07820 whole entry): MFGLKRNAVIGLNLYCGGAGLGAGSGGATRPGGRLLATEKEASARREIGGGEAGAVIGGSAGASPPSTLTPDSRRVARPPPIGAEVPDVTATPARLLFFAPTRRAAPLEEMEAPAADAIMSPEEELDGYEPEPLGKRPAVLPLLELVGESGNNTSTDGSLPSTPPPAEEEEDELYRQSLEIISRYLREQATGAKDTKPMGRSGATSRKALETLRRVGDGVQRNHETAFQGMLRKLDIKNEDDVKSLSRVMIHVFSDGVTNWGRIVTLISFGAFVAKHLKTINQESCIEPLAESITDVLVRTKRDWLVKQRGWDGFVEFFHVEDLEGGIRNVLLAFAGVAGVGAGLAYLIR

SMILES: O=C(CCl)Nc1ccccc1C(=O)NCc1ccccc1
- EC50 [1]: > 150 µM (inconclusive)
- EC50 (BJ [2]): > 150 µM (not active)
- EC50 (BJ [3]): > 150 µM (not active)
- EC50 (BJ [4]): > 150 µM (not active)

SMILES: CC/N=c1\sc2ccccc2n1CC(O)COc1ccccc1 (stereo not drawn)
- EC50 [5]: 29.1 µM (active)

SMILES: Cc1cccc(C2=NCC(=O)N(CC(=O)NCc3ccco3)c3sc4c(c32)CCCC4)c1
- EC50 [5]: 4.37 µM (active)

SMILES: Cc1ccc(-n2nnnc2Sc2nc([N+](=O)[O-])nn2C)c(C)c1
- AC50 [6]: 39.6 µM (active)

SMILES: CCn1nc(C(=O)Nc2cccc3ccccc23)c(Cl)c1Cl
- EC50 [5]: 10.5 µM (active)

SMILES: O=C(Nn1c(C2CCC2)nc2ccccc2c1=O)C1CCC1
- IC50 (Aminopeptidase N): 48.2 µM (active)

SMILES: CC(c1nc2ccccc2o1)N1C(=O)c2ccccc2C1=O (stereo not drawn)
- IC50 (Aminopeptidase N): 79.5 µM (active)

SMILES: COC(=O)c1[nH]c2ccc(Cl)cc2c1NC(=O)CN1CCc2cc(OC)c(OC)cc2C1
- IC50 [7]: 7.77 µM (active)
- EC50 [8]: > 112 µM (not active)
- IC50 [9]: 3.18 µM (active)
- EC50 [10]: > 112 µM (not active)

SMILES: CC(C)=NN=C(N)NC(=S)Nc1ccc(C)cc1
- IC50 (Leucine aminopeptidase): 59.3 µM (active)

SMILES: COC(=O)c1[nH]c2ccc(Br)cc2c1NC(=O)CN1CCN(C2CCCCC2)CC1
- EC50 [11]: 12.2 µM (active)
- EC50 [12]: 7.79 µM (active)
- EC50 [13]: 12.9 µM (active)
- EC50 [14]: > 20 µM (not active)
- IC50 [15]: 22.4 µM (inactive)
- EC50 [16]: > 20 µM (not active)

SMILES: CN1C(=O)/C(=C/c2cccc(Cl)c2)Sc2ccc(C(=O)N3CCCC3)cc21
- CC50 [17]: 25.5 µM (active)
- IC50 (cells): 34.4 µM (active)
- CC50 [18]: 9.59 µM (active)

SMILES: CCOC(=O)c1cc(=O)n2nc(-c3ccccc3F)nc2s1
- IC50 (Leucine aminopeptidase): 31.2 µM (active)
- EC50 [19]: > 300 µM (not active)
- EC50 [20]: > 300 µM (not active)

SMILES: CCCCNC(=S)Nc1ccc2cn[nH]c2c1
- IC50 (Leucine aminopeptidase): 75.6 µM (active)

SMILES: Nc1cc(N)nc(SCC(=O)Nc2ccc(Br)cc2Cl)n1
- IC50 [7]: 6.06 µM (active)
- IC50 [9]: 4.42 µM (active)

SMILES: COc1cccc(CNC(=O)C2CCN(Cc3cnn(-c4ccccc4)c3-n3cccc3)CC2)c1
- EC50 [5]: 9.81 µM (active)

SMILES: CCN(c1ccccc1)S(=O)(=O)c1ccc(C(=O)NC2CCN(Cc3ccccc3)CC2)cc1
- IC50 [15]: > 80 µM (inactive)
- AC50 (INS1): 2.31 µM (active)

SMILES: O=C(Nc1ccccc1)Nc1ccc(C(=O)N2CCCC2)cc1
- EC50 [1]: 7.86 µM (active)
- EC50 (BJ [2]): > 150 µM (inconclusive)
- EC50 [8]: 0.571 µM (active)
- EC50 (BJ [3]): 9.11 µM (active)
- EC50 [10]: 3.93 µM (active)
- EC50 (BJ [4]): 9.01 µM (active)

SMILES: Cc1ccc2[nH]c(C)c(/C=C3/C(=N)N4C(=NC3=O)SN=C4S(=O)(=O)C(C)C)c2c1
- IC50 (Aminopeptidase N): 9.85 µM (active)
- IC50 (Leucine aminopeptidase): 7.16 µM (active)
- IC50 [21]: 11.8 µM (not active)

SMILES: Cc1ccc(CC(=O)N2CCN(c3ccc([N+](=O)[O-])cc3)CC2)cc1
- CC50 [18]: > 40 µM (active)
